Measured values: patent publication US20240091242A1, “LIPIDS THAT REDUCE LUNG DAMAGE, IMPROVE PULMONARY FUNCTION AND DECREASE PRO-INFLAMMATORY CYTOKINES” (Signpath Pharma, Inc., priority 2021, published 2024)

Experiments:
Type in all cases: in vivo, mouse
murine LPS ARDS model [1] = assay: Respiratory functions by whole-body plethysmograph, murine LPS ARDS model; details: P<0.001
Protocol: (§1) In the ARDS group, mice received Escherichia coli O111:B4 lipopolysaccharide (50 μg in 0.05 mL saline, i.t.), while, in the control group, the animals received an instillation of saline (0.05 mL, i.t.). For intratracheal instillation, mice were slightly anesthetized with isoflurane.
(§2) The lipid SPPCT-800 was dissolved in water (low dose—2 mg/ml; high dose—20 mg/ml). For the 24-hour study, two treatment approaches were used. Mice received a single dose of SPPCT-800 (200 mg/kg, per gavage) as prevention (30 minutes before the LPS instillation), or as a single dose of either 20 mg/kg or 200 mg/kg as therapy (3-hour after the LPS instillation). For the 72-hour study, mice received a total of 8 treatments of SPPCT-800 (200 mg/kg) starting at 3-hour after the LPS instillation. Disease progression in mice was assessed by the evaluation of pulmonary functions, blood oxygen saturation, and body weight change. On the terminal day of each study (24 hours or 72 hours), measurement of cytokine levels in the plasma and BALF, and histopathology evaluations were done.
Respiratory Functions. All mice were introduced to the plethysmograph chamber environment. After the acclimatization period, the functional respiratory parameters were assessed by the whole-body plethysmograph (VivoFlow, SCIREQ, Montreal, Canada) at 0 hour (baseline), at 24-hour post-LPS instillation, and at 48 and 72-hour post-LPS instillation. Each measurement was performed with the mouse placed alone in an unrestrained whole-body plethysmography (WBP) chamber to measure respiratory functions. The WBP trace allowed us to determine specific information regarding the breathing pattern, and to derive important information associated with the development of inflammation. The functional respiratory parameters analyzed included respiratory rate, PenH (pulmonary congestion index), and inspiratory/expiratory time measurements. PenH, was used as an index of edema, inflammation and congestion (broncho-restriction).^24
(§3) Statistical Analysis. Results are expressed as means±SEM. Comparisons were made on normally distributed data using ANOVA, followed by a Fisher post hoc test to assess the difference between LPS+vehicle group with GraphPad Prism Software version 8.0 (San Diego, CA, USA). Differences were considered statistically significant when P values were less than 0.05. (* Shown difference versus Sham animals and # shown difference versus LPS+Vehicle group. * Means P<0.05, ** P<0.01, *** P<0.001 while # means P<0.05, ##P<0.01 and ###P<0.001).

murine LPS ARDS model [2] = assay: BALF protein content and cell counts, murine LPS ARDS model
Protocol: as §1, §2
Differential Cell Counts in BALF. The left lung was clamped while 0.9 mL of cold PBS 1×, Protease Inhibitor 1× (SigmaFast®) solution (3×300 μL) was injected so bronchoalveolar lavage fluid (BALF) from the right lobe of the lungs could be collected. The protein assay was performed according to the manufacturer's instruction BCA Protein Assay (Pierce™-#23227). Briefly, a dilution factor of 5 was used (1 part of BALF: 4 part of PBS 1×). 10 μL, of the diluted sample was added into the microplate wells. 200 μL of the working reagent was added into each well. The plate was covered, incubated at 37° C. for 30 minutes. After a cool-down period, the absorbance at 562 nm was rapidly measured using a monochromatic spectrophotometer (SpectraMAX ® plus—Molecular Devices). The total BALF protein content was reported by multiplying the protein concentration by the dilution factor, and then multiplying by the total of BALF volume collected.
as §3

murine LPS ARDS model [3] = assay: Overall efficacy in the murine LPS ARDS model
Protocol: To investigate the role of the lipids of the present invention, such as SPPCT-800, as a treatment for ARDS, the inventors used a murine LPS model to measure histologic changes, lung and body weights, oxygen blood saturations and other pulmonary function parameters, BALF protein and cell counts, and pro-inflammatory cytokine levels in the plasma and BALF.
as §1
as §2, with “On the terminal day of each study (24 hours or 72 hours), measurement of cytokine levels in the plasma and BALF, and histopathology evaluations were done.” left out

CCCCCCCCCCCCCC(=O)OCC(COP(=O)([O-])OCC(COC(=O)CCC)OC(=O)CCC)OC(=O)CCCCCCCCCCCCC.CCCCCCCCCCCCCC(=O)OCC(COP(=O)([O-])OCC(COC(=O)CCC)OC(=O)CCC)OC(=O)CCCCCCCCCCCCC.[Mg+2] (stereo not shown) [SPPCT-800]
inspiratory time (murine LPS ARDS model [1]; at 24 hours): Significant reductions
pulmonary congestion index (PenH) (murine LPS ARDS model [1]; at 24 hours): Significant reductions
expiratory time (murine LPS ARDS model [1]; at 48 hours): significant reductions
pulmonary congestion index (PenH) (murine LPS ARDS model [1]; at 48 hours): significant reductions
BALF protein content (murine LPS ARDS model [2]; 24 hours after LPS, single dose given as a preventive, P<0.05): significant reduction
BALF protein levels (murine LPS ARDS model [2]; at 72 hours, multidose treatment): major reductions
BALF neutrophil counts (murine LPS ARDS model [2]; at 72 hours, multidose treatment, P=0.1493, not statistically significant): reductions
BALF total cell count (murine LPS ARDS model [2]; at 72 hours, multidose treatment, P=0.1714, not statistically significant): reductions
efficacy against ARDS (murine LPS ARDS model [3]; all three studies, best results in the 72-hour study): effective
severe damage to the lung (murine LPS ARDS model [3]; single dose of 200 mg/kg, given 30 minutes before LPS challenge): significantly reduces
